Converted amounts (≈) assume the structure as drawn.
Assays:
Assay type in all cases: functional
Streptococcus pneumoniae [1] = assay: Antibacterial activity against Streptococcus pneumoniae 12-18 after 18 to 24 hrs by standard twofold serial dilution method
Staphylococcus aureus [2] = assay: Antibacterial activity against methicillin-resistant Staphylococcus aureus 12-2 after 18 to 24 hrs by standard twofold serial dilution method
Klebsiella pneumoniae [3] = assay: Antibacterial activity against Klebsiella pneumoniae 12-1 after 18 to 24 hrs by standard twofold serial dilution method
[4] = test system: Staphylococcus epidermidis; assay: Antibacterial activity against methicillin-resistant Staphylococcus epidermidis 12-6 after 18 to 24 hrs by standard twofold serial dilution method
Pseudomonas aeruginosa [5] = assay: Antibacterial activity against Pseudomonas aeruginosa 12-14 after 18 to 24 hrs by standard twofold serial dilution method
Pseudomonas aeruginosa [6] = assay: Antibacterial activity against Pseudomonas aeruginosa 12-12 after 18 to 24 hrs by standard twofold serial dilution method
Klebsiella pneumoniae [7] = assay: Antibacterial activity against extended-spectrum beta-lactamase producin Klebsiella pneumoniae 12-4 after 18 to 24 hrs by standard twofold serial dilution method
Klebsiella pneumoniae [8] = assay: Antibacterial activity against Klebsiella pneumoniae 12-2 after 18 to 24 hrs by standard twofold serial dilution method
[9] = test system: Staphylococcus epidermidis; assay: Antibacterial activity against methicillin-resistant Staphylococcus epidermidis 12-1 after 18 to 24 hrs by standard twofold serial dilution method
Staphylococcus aureus [10] = assay: Antibacterial activity against methicillin-sensitive Staphylococcus aureus 12-1 after 18 to 24 hrs by standard twofold serial dilution method
Streptococcus pneumoniae [11] = assay: Antibacterial activity against Streptococcus pneumoniae ATCC 49619 after 18 to 24 hrs by standard twofold serial dilution method
Escherichia coli [12] = assay: Antibacterial activity against Escherichia coli ATCC 25922 after 18 to 24 hrs by standard twofold serial dilution method
Escherichia coli [13] = assay: Antibacterial activity against extended-spectrum beta-lactamase producing Escherichia coli 12-3 after 18 to 24 hrs by standard twofold serial dilution method
Staphylococcus aureus [14] = assay: Antibacterial activity against methicillin-sensitive Staphylococcus aureus 12-4 after 18 to 24 hrs by standard twofold serial dilution method
Escherichia coli [15] = assay: Antibacterial activity against extended-spectrum beta-lactamase producing Escherichia coli 12-15 after 18 to 24 hrs by standard twofold serial dilution method
Staphylococcus aureus [16] = assay: Antibacterial activity against methicillin-sensitive Staphylococcus aureus 12-5 after 18 to 24 hrs by standard twofold serial dilution method
[17] = test system: Staphylococcus epidermidis; assay: Antibacterial activity against methicillin-sensitive Staphylococcus epidermidis 12-1 after 18 to 24 hrs by standard twofold serial dilution method
Klebsiella pneumoniae [18] = assay: Antibacterial activity against extended-spectrum beta-lactamase producin Klebsiella pneumoniae 12-7 after 18 to 24 hrs by standard twofold serial dilution method
Escherichia coli [19] = assay: Antibacterial activity against Escherichia coli 12-1 after 18 to 24 hrs by standard twofold serial dilution method
[20] = test system: Mycobacterium tuberculosis; assay: Antimycobacterial activity against Mycobacterium tuberculosis H37Rv ATCC 27294 by MABA method
[21] = test system: Staphylococcus epidermidis; assay: Antibacterial activity against methicillin-sensitive Staphylococcus epidermidis 12-3 after 18 to 24 hrs by standard twofold serial dilution method
Klebsiella pneumoniae [22] = assay: Antibacterial activity against Klebsiella pneumoniae 12-4 after 18 to 24 hrs by standard twofold serial dilution method
Escherichia coli [23] = assay: Antibacterial activity against extended-spectrum beta-lactamase producing Escherichia coli 12-2 after 18 to 24 hrs by standard twofold serial dilution method
Staphylococcus aureus [24] = assay: Antibacterial activity against methicillin-resistant Staphylococcus aureus 12-5 after 18 to 24 hrs by standard twofold serial dilution method
Staphylococcus aureus [25] = assay: Antibacterial activity against methicillin-sensitive Staphylococcus aureus 12-2 after 18 to 24 hrs by standard twofold serial dilution method
[26] = test system: Staphylococcus epidermidis; assay: Antibacterial activity against methicillin-sensitive Staphylococcus epidermidis 12-6 after 18 to 24 hrs by standard twofold serial dilution method
Klebsiella pneumoniae [27] = assay: Antibacterial activity against extended-spectrum beta-lactamase producin Klebsiella pneumoniae 12-14 after 18 to 24 hrs by standard twofold serial dilution method
Escherichia coli [28] = assay: Antibacterial activity against extended-spectrum beta-lactamase producing Escherichia coli 12-14 after 18 to 24 hrs by standard twofold serial dilution method
[29] = test system: Staphylococcus epidermidis; assay: Antibacterial activity against methicillin-sensitive Staphylococcus epidermidis 12-8 after 18 to 24 hrs by standard twofold serial dilution method
Klebsiella pneumoniae [30] = assay: Antibacterial activity against extended-spectrum beta-lactamase producin Klebsiella pneumoniae 12-3 after 18 to 24 hrs by standard twofold serial dilution method
Staphylococcus aureus [31] = assay: Antibacterial activity against methicillin-resistant Staphylococcus aureus 12-4 after 18 to 24 hrs by standard twofold serial dilution method
Staphylococcus aureus [32] = assay: Antibacterial activity against Staphylococcus aureus ATCC 25923 after 18 to 24 hrs by standard twofold serial dilution method

CO/N=C1/CN(c2cc3c(cc2F)c(=O)c(C(=O)O)cn3[C@@H]2C[C@@H]2F)[C@H]1CN
MIC (Streptococcus pneumoniae [1]): 0.5 µg/mL (≈ 1.27 µM)
MIC (Staphylococcus aureus [2]): 32 µg/mL (≈ 81.6 µM)
MIC (Klebsiella pneumoniae [3]): 0.125 µg/mL (≈ 0.319 µM)
MIC [4]: 4 µg/mL (≈ 10.2 µM)
MIC (Pseudomonas aeruginosa [5]): 32 µg/mL (≈ 81.6 µM)
MIC (Pseudomonas aeruginosa [6]): 0.25 µg/mL (≈ 0.637 µM)
MIC (Klebsiella pneumoniae [7]): 8 µg/mL (≈ 20.4 µM)
MIC (Klebsiella pneumoniae [8]): 0.125 µg/mL (≈ 0.319 µM)
MIC [9]: 8 µg/mL (≈ 20.4 µM)
MIC (Staphylococcus aureus [10]): 0.5 µg/mL (≈ 1.27 µM)
MIC (Streptococcus pneumoniae [11]): 0.125 µg/mL (≈ 0.319 µM)
MIC (Escherichia coli [12]): < 0.008 µg/mL
MIC (Escherichia coli [13]): 16 µg/mL (≈ 40.8 µM)
MIC (Staphylococcus aureus [14]): 0.25 µg/mL (≈ 0.637 µM)
MIC (Escherichia coli [15]): > 128 µg/mL
MIC (Staphylococcus aureus [16]): 0.5 µg/mL (≈ 1.27 µM)
MIC [17]: 0.25 µg/mL (≈ 0.637 µM)
MIC (Klebsiella pneumoniae [18]): 0.5 µg/mL (≈ 1.27 µM)
MIC (Escherichia coli [19]): 1 µg/mL (≈ 2.55 µM)
MIC [20]: 0.5 µg/mL (≈ 1.27 µM)
MIC [21]: 0.25 µg/mL (≈ 0.637 µM)
MIC (Klebsiella pneumoniae [22]): 0.015 µg/mL (≈ 0.0382 µM)
MIC (Escherichia coli [23]): 128 µg/mL (≈ 326 µM)
MIC (Staphylococcus aureus [24]): 32 µg/mL (≈ 81.6 µM)
MIC (Staphylococcus aureus [25]): 0.5 µg/mL (≈ 1.27 µM)
MIC [26]: 0.25 µg/mL (≈ 0.637 µM)
MIC (Klebsiella pneumoniae [27]): 64 µg/mL (≈ 163 µM)
MIC (Escherichia coli [28]): 64 µg/mL (≈ 163 µM)
MIC [29]: 0.125 µg/mL (≈ 0.319 µM)
MIC (Klebsiella pneumoniae [30]): 64 µg/mL (≈ 163 µM)
MIC (Staphylococcus aureus [31]): 64 µg/mL (≈ 163 µM)
MIC (Staphylococcus aureus [32]): 0.06 µg/mL (≈ 0.153 µM)

CCO/N=C1/CN(c2nc3c(cc2F)c(=O)c(C(=O)O)cn3[C@@H]2C[C@@H]2F)CC1CN (some centres undefined)
MIC (Streptococcus pneumoniae [1]): 0.06 µg/mL (≈ 0.142 µM)
MIC (Staphylococcus aureus [2]): 4 µg/mL (≈ 9.49 µM)
MIC (Klebsiella pneumoniae [3]): 0.03 µg/mL (≈ 0.0712 µM)
MIC [4]: 4 µg/mL (≈ 9.49 µM)
MIC (Pseudomonas aeruginosa [5]): 2 µg/mL (≈ 4.75 µM)
MIC (Pseudomonas aeruginosa [6]): 0.125 µg/mL (≈ 0.297 µM)
MIC (Klebsiella pneumoniae [7]): 8 µg/mL (≈ 19 µM)
MIC (Klebsiella pneumoniae [8]): 0.06 µg/mL (≈ 0.142 µM)
MIC [9]: 1 µg/mL (≈ 2.37 µM)
MIC (Staphylococcus aureus [10]): 0.015 µg/mL (≈ 0.0356 µM)
MIC (Streptococcus pneumoniae [11]): 0.03 µg/mL (≈ 0.0712 µM)
MIC (Escherichia coli [12]): < 0.008 µg/mL
MIC (Escherichia coli [13]): 16 µg/mL (≈ 38 µM)
MIC (Staphylococcus aureus [14]): 0.015 µg/mL (≈ 0.0356 µM)
MIC (Escherichia coli [15]): 128 µg/mL (≈ 304 µM)
MIC (Staphylococcus aureus [16]): 0.015 µg/mL (≈ 0.0356 µM)
MIC [17]: < 0.008 µg/mL
MIC (Klebsiella pneumoniae [18]): 0.125 µg/mL (≈ 0.297 µM)
MIC (Escherichia coli [19]): 0.06 µg/mL (≈ 0.142 µM)
MIC [20]: 0.5 µg/mL (≈ 1.19 µM)
MIC [21]: 0.03 µg/mL (≈ 0.0712 µM)
MIC (Klebsiella pneumoniae [22]): 0.125 µg/mL (≈ 0.297 µM)
MIC (Escherichia coli [23]): 64 µg/mL (≈ 152 µM)
MIC (Staphylococcus aureus [24]): 4 µg/mL (≈ 9.49 µM)
MIC (Staphylococcus aureus [25]): 0.015 µg/mL (≈ 0.0356 µM)
MIC [26]: 0.015 µg/mL (≈ 0.0356 µM)
MIC (Klebsiella pneumoniae [27]): 32 µg/mL (≈ 75.9 µM)
MIC (Escherichia coli [28]): 16 µg/mL (≈ 38 µM)
MIC [29]: 0.25 µg/mL (≈ 0.593 µM)
MIC (Klebsiella pneumoniae [30]): 16 µg/mL (≈ 38 µM)
MIC (Staphylococcus aureus [31]): 4 µg/mL (≈ 9.49 µM)
MIC (Staphylococcus aureus [32]): < 0.008 µg/mL

From ChEMBL document CHEMBL3352227, “Synthesis, antimycobacterial and antibacterial evaluation of l-[(1R, 2S)-2-fluorocyclopropyl]fluoroquinolone derivatives containing an oxime functional moiety” (Eur J Med Chem, 2014)
